Ends that are not written are not given here.
Assays:
[1] = system: human embryonic kidney cells (HEK293T)
[2] = system: human bronchial epithelial cells (BEAS-2B)
[3] = Electronic tongue analysis (Taste-Sensing System SA 402B); set-up: unit not given here; conditions: reference solution 30 mM KCl + 0.3 mM tartaric acid as baseline, first measurement excluded; for Umami: sensor AAE; for Umami / Bitter / Sweet: detection threshold 0, room temperature; for Umami / Bitter / Sour / Salty: four replicates; for Sour: detection threshold -13, room temperature; for Salty: detection threshold -6, room temperature; for Sweet: measured five times
Outline: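 Room-temperature electronic-tongue readings with five taste probes, calibrated against a reference of 30 mM KCl and 0.3 mM tartaric acid. Samples at 0.1 mg/mL and 1.0 mg/mL were measured four times, sweetness five times, and the first run was dropped. Detection cut-offs were sour −13, salty −6, others 0.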

[4] = system: human umbilical vein endothelial cells (HUVEC)
Experimental: The cytotoxicity of 73 synthetic peptides was evaluated using four human cell lines: human pancreatic ductal epithelial cells (HPNE), human embryonic kidney cells (HEK293T), human umbilical vein endothelial cells (HUVEC), and human bronchial epithelial cells (BEAS-2B). When cell density reached 70% confluence, the complete culture medium was replaced with serum-free maintenance medium, and peptides were added at a final concentration of 100 μM for 36 h. Control groups received only serum-free maintenance medium without peptides. Cell proliferation was assessed using the CCK-8 assay kit (Solarbio, CA1210) according to the manufacturer’s instructions.

[5] = system: human pancreatic ductal epithelial cells (HPNE)

| Substance | Average cell viability, HEK293T [1] | Cell viability, HEK293T, Data1 [1] | Cell viability, HEK293T, Data2 [1] | Cell viability, HEK293T, Data3 [1] | Average cell viability, BEAS-2B [2] | Cell viability, BEAS-2B, Data1 [2] | Cell viability, BEAS-2B, Data2 [2] | Cell viability, BEAS-2B, Data3 [2] | Umami ([3]; peptide 0.1 mg/mL) | Umami ([3]; peptide 1 mg/mL) | Bitter ([3]; sensor C00, peptide 0.1 mg/mL) | Bitter ([3]; sensor C00, peptide 1 mg/mL) | Sour ([3]; sensor CA0, peptide 0.1 mg/mL) | Sour ([3]; sensor CA0, peptide 1 mg/mL) | Salty ([3]; sensor CT0, peptide 0.1 mg/mL) | Salty ([3]; sensor CT0, peptide 1 mg/mL) | Sweet ([3]; sensor GL1, peptide 0.1 mg/mL) | Sweet ([3]; sensor GL1, peptide 1 mg/mL) | Average cell viability, HUVEC [4] | Cell viability, HUVEC, Data1 [4] | other results |
| --- | --- | --- | --- | --- | --- | --- | --- | --- | --- | --- | --- | --- | --- | --- | --- | --- | --- | --- | --- | --- | --- |
| YDGTPLN [TaPep11] | 102.37 | 107.03 | 95.68 | 104.38 | 102.96 | 102.59 | 99.80 | 106.48 | 2.75 | -2.91 | 7.10 | 3.24 | -5.95 | 9.08 | -21.79 | 6.18 | 9.69 | -5.23 | 112.96 | 111.12 | Cell viability, HUVEC, Data2 [4]: 113.36; Cell viability, HUVEC, Data3 [4]: 114.40; Average cell viability, HPNE [5]: 100.63; Cell viability, HPNE, Data1 [5]: 98.34; Cell viability, HPNE, Data2 [5]: 113.51; Cell viability, HPNE, Data3 [5]: 90.05 |
| TIDDELR [TaPep26] | 99.46 | 96.81 | 98.23 | 103.34 | 102.16 | 95.61 | 106.68 | 104.19 | 1.71 | -4.35 | 7.26 | 3.16 | -3.53 | 10.93 | -21.44 | 8.38 | 5.51 | -3.99 | 104.87 | 103.54 | Cell viability, HUVEC, Data2 [4]: 102.74; Cell viability, HUVEC, Data3 [4]: 108.33; Average cell viability, HPNE [5]: 94.58; Cell viability, HPNE, Data1 [5]: 84.76; Cell viability, HPNE, Data2 [5]: 94.94; Cell viability, HPNE, Data3 [5]: 104.03 |
| YQAENKH [TaPep14] | 98.23 | 95.02 | 96.25 | 103.44 | 116.78 | 112.46 | 118.94 | 118.94 | 3.07 | -3.87 | 7.83 | 0.38 | -6.58 | 9.86 | -18.09 | 13.64 | 7.88 | -4.10 | 95.42 | 102.42 | Cell viability, HUVEC, Data2 [4]: 90.29; Cell viability, HUVEC, Data3 [4]: 93.56; Average cell viability, HPNE [5]: 98.70; Cell viability, HPNE, Data1 [5]: 93.34; Cell viability, HPNE, Data2 [5]: 103.13; Cell viability, HPNE, Data3 [5]: 99.63 |
| SVLEFS [TaPep52] | 99.31 | 102.87 | 97.95 | 97.10 | 105.65 | 105.38 | 103.19 | 108.37 | 2.84 | -2.08 | 7.49 | 4.10 | -6.24 | 5.72 | -20.56 | 3.13 | 9.54 | -1.51 | 102.10 | 102.10 | Cell viability, HUVEC, Data2 [4]: 88.93; Cell viability, HUVEC, Data3 [4]: 115.27; Average cell viability, HPNE [5]: 109.12; Cell viability, HPNE, Data1 [5]: 112.31; Cell viability, HPNE, Data2 [5]: 112.11; Cell viability, HPNE, Data3 [5]: 102.93 |
| SAANT [TaPep31] | 99.34 | 102.02 | 100.41 | 95.58 | 110.70 | 118.64 | 100.10 | 113.36 | 1.69 | -4.82 | 7.84 | 2.76 | -3.49 | 12.70 | -19.57 | 12.57 | 8.41 | -5.90 | 99.39 | 91.56 | Cell viability, HUVEC, Data2 [4]: 100.67; Cell viability, HUVEC, Data3 [4]: 105.93; Average cell viability, HPNE [5]: 100.40; Cell viability, HPNE, Data1 [5]: 105.82; Cell viability, HPNE, Data2 [5]: 112.81; Cell viability, HPNE, Data3 [5]: 82.56 |
| HGGDDLG [TaPep28] | 97.67 | 96.62 | 99.75 | 96.62 | 108.84 | 111.86 | 106.08 | 108.57 | 1.08 | -5.39 | 7.58 | 4.00 | -2.05 | 13.70 | -21.08 | 11.23 | 3.25 | -6.08 | 104.66 | 105.77 | Cell viability, HUVEC, Data2 [4]: 106.73; Cell viability, HUVEC, Data3 [4]: 101.46; Average cell viability, HPNE [5]: 100.10; Cell viability, HPNE, Data1 [5]: 100.63; Cell viability, HPNE, Data2 [5]: 102.04; Cell viability, HPNE, Data3 [5]: 97.63 |
| DQEPVE [TaPep44] | 102.43 | 105.71 | 98.14 | 103.44 | 101.53 | 108.18 | 97.51 | 98.90 | 0.51 | -6.35 | 7.74 | 3.13 | -0.62 | 14.96 | -19.30 | 10.03 | 3.94 | -11.10 | 109.31 | 108.41 | Cell viability, HUVEC, Data2 [4]: 112.00; Cell viability, HUVEC, Data3 [4]: 107.53; Average cell viability, HPNE [5]: 105.06; Cell viability, HPNE, Data1 [5]: 112.51; Cell viability, HPNE, Data2 [5]: 118.30; Cell viability, HPNE, Data3 [5]: 84.36 |
